In PMC10403574, “Discovery of a pyrrole-pyridinimidazole derivative as novel SIRT6 inhibitor for sensitizing pancreatic cancer to gemcitabine” (Cell Death & Disease, 2023):

Tests used:
HDAC2 = HDAC2 (Homo sapiens, UniProt Q92769); experiment: Deacetylation activity selectivity, HDAC2; assay type: biochemical
Source text: (§1) Based on the above results, 8a was further investigated in this study. […] To further evaluate the selectivity of 8a for SIRT6, we examined the effect of 8a on the deacetylation activity of other HDAC family members, including HDAC1-HDAC11, SIRT1-SIRT3 and SIRT5. […] Furthermore, to confirm binding of 8a to SIRT6 in cells, we carried out the cellular thermal shift assay (CETSA). The CETSA approach builds on the thermal shift assay concept where ligand binding to its target protein enhances the target protein stability. We observed that the thermal stability of SIRT6 increased after 8a treatment (Figs. 2c, d).

HDAC10 = HDAC10 (Homo sapiens, UniProt Q969S8); experiment: Deacetylation activity selectivity, HDAC10; assay type: biochemical
Chain of HDAC10 (Q969S8 whole entry, species assumed): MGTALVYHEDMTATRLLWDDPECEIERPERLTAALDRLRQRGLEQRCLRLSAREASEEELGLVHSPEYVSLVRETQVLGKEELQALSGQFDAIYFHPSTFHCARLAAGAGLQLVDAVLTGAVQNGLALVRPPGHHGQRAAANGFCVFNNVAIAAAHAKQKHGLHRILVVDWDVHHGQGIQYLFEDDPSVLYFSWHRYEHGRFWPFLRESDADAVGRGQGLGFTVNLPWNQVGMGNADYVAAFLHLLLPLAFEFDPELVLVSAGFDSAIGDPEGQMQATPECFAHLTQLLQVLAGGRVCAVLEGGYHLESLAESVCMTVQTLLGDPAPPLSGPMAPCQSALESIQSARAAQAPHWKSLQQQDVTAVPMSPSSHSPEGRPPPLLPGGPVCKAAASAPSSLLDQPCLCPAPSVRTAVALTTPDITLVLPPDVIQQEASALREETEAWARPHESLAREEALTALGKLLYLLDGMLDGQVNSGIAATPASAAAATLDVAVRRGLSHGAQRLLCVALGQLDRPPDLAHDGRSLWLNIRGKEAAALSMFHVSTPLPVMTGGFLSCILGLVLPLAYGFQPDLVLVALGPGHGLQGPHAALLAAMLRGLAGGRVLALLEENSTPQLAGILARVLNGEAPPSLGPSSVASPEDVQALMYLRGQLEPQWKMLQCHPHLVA
Source text: as §1

SIRT6 [1] = biological target: T1, SIRT6 (Homo sapiens, UniProt Q8N6T7); experiment: Fluor-De-Lys (FDL) SIRT6 deacetylation assay; assay type: biochemical; set-up: The human full-length SIRT6 gene was inserted into the prokaryotic expression vector (pET-28a (+)); inferred from the pET-28a(+) vector, Ni-NTA purification and Ni-NTA biosensor loading); made in house; host or cells: Escherichia coli BL21 (DE3)
T1 sequence (Q8N6T7 whole entry): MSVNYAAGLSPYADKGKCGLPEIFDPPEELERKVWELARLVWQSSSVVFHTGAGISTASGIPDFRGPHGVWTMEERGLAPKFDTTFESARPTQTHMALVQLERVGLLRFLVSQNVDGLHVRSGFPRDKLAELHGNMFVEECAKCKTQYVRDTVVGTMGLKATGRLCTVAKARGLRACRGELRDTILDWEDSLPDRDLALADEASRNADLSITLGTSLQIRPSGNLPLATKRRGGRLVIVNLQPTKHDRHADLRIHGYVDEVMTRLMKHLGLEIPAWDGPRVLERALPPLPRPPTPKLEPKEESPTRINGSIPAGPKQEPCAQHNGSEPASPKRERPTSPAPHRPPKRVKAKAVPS
Protocol: The human full-length SIRT6 gene was inserted into the prokaryotic expression vector (pET-28a (+)). The verified recombinant plasmid was transformed into Escherichia coli BL21 (DE3) expression strain and cultured overnight at 37 °C on LB plates supplemented with 50 μg/mL kanamycin. Single colonies were inoculated in fluid kanamycin-containing LB mediums. It was shaken at 160 rpm for 16 h at 37 °C and transferred to kanamycin-containing LB medium at a ratio of 1:100. It was shaken at 160 rpm at 37 °C until the OD600 reached 0.6. The Isopropyl-β-d-thiogalactopyranoside was added to make the final concentration of solution 0.5 mmol/L, cultured for 15 °C and 160 rpm for 24 h.
Bacterial liquid was harvested at 12,000 rpm at 4 °C for 20 min, and then re-suspended in Lysis buffer (20 mmol/L Hepes pH 7.5, 20 mmol/L imidazole, 5% Glycerol, 500 mmol/L NaCl). Cell pellets were disrupted by high-pressure crusher (JNBIO, Guangzhou China) and centrifuged (4 °C, 12000 rpm, for 20 min). Supernatant was collected and purified by FPLC with a 1 mL Ni–NTA Sepharose column (GE Healthcare, Stamford, USA). The SIRT6 protein was eluted at containing 50 mM, 100 mM, 150 mM, 200 mM, and 500 mM imidazole in elution buffer. The purified SIRT6 protein was dialyzed in dialysis buffer (50 mM Tris-HCl, 137 mM NaCl, 2.7 mM KCl, 1 mM MgCl2). The purified SIRT6 protein was analyzed by SDS-PAGE.
Fluor-De-Lys (FDL) assays were used for the examination of the deacetylation activities of sirtuins as described previously. For the detection of SIRT6 activity, the 50-μL reaction mixture contained 5 μM SIRT6, 2.5 mM NAD^+ (β-Nicotinamide adenine dinucleotide hydrate, Sigma, N1636), 75 μM RHKK-Ac-AMC (GL Biochem, Shanghai), compounds/DMSO, and assay buffer. The reactions were incubated at 37 °C for 2 h, added 50 μL stop solution (40 mM nicotinamide, 6 mg/mL trypsin) at 25 °C for 30 min. Fluorescence intensity was measured at an excitation wavelength of 360 nm and an emission wavelength of 460 nm. IC50 values were calculated in GraphPad Prism version 8.00.

HUVEC cells = experiment: MTT cytotoxicity, normal HUVEC cells; assay type: cell-based; conditions: 72 h
PANC-1 cells = experiment: MTT proliferation assay, PANC-1; assay type: cell-based; conditions: 72 h
Protocol: BXPC-3 and PANC-1 cells were plated in 96-well plates at 5000 cells per well. After 12 h attachment, varying concentrations of 8a were added into the culture medium for 72 h. Then 10 μL MTT (5 mg/ml) solution was added into per well for 4 h at 37 °C. After removing medium, formazan crystals were dissolved in 150 µL DMSO. The cells viability was quantified by measuring the absorbance at 570 nm.

SIRT6 [2] = biological target: T1, SIRT6; experiment: Fluor-De-Lys (FDL) SIRT6 deacetylation assay; assay type: biochemical; set-up: The human full-length SIRT6 gene was inserted into the prokaryotic expression vector (pET-28a (+)); inferred from the pET-28a(+) vector, Ni-NTA purification and Ni-NTA biosensor loading); made in house; host or cells: Escherichia coli BL21 (DE3); remark: listed apart in the source
β-TC-6 cells = experiment: Cell glucose uptake assay, β-TC-6; assay type: cell-based; conditions: β-TC-6, 8a (3.125, 6.25, 12.5 μM) + insulin (100 nM) vs insulin only, 30 min
Protocol: The NIT-1 and β-TC-6 cells were added to the wells of 12-well plates and incubated overnight. Then the culture medium without FBS was incubated for 6 h, and different concentrations of 8a (3.125, 6.25, 12.5 μM), insulin (100 nM) or their combination were added for 30 min. Glucose uptake was determined using a Glucose Uptake Assay Kit (Jiancheng, Nanjing).

[3] = Lineweaver–Burk plot, RHKK-Ac-AMC and NAD+ substrates

Chain of HDAC2 (Q92769 whole entry, species assumed): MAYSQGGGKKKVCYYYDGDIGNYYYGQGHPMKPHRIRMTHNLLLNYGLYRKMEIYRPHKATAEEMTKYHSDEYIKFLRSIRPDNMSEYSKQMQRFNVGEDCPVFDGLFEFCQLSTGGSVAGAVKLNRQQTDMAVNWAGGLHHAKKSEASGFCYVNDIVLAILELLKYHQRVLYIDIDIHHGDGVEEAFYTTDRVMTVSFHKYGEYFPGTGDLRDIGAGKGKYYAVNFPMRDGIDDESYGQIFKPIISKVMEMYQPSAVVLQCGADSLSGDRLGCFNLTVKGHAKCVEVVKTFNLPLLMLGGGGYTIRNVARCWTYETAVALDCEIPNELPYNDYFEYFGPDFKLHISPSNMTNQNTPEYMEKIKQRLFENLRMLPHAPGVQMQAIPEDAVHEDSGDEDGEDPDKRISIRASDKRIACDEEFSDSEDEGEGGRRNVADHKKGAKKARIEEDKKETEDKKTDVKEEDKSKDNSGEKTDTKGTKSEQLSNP

IC50 (HDAC2): > 200 µM | IC50 (HDAC10): > 200 µM | IC50 (SIRT6 [1]): 7.46 ± 0.79 µM | Inhibition rate (%) (SIRT6 [1]; fixed concentration of 25 μM, RHKK-Ac-AMC, NI = no inhibition): 75.6% | IC50 (PANC-1 cells): 9.28 µM | Km (SIRT6 [2]; [3]): did not alter | Vmax (SIRT6 [2]; [3]): obviously decreased | inhibition mode (SIRT6 [2]; competition and enzymatic kinetic assays): non-competitive inhibitor | glucose uptake (β-TC-6 cells): no significant effect
SMILES: Br.CN(C)C(SCCCCCCn1cnc2c(-c3cc(Br)c(Br)[nH]3)nccc21)=[N+](C)C.[Cl-] [Compound 8a]
IC50 (HUVEC cells): 41 µM
